Measured values as given in patent US8017791B2, “Tri-substituted 2-benzhydryl-5-benzylamino-tetrahydro-pyran-4-ol and 6-benzhydryl-4-benzylamino-tetrahydro-pyran-3-ol analogues, and novel, 3,6-disubstituted pyran derivatives” (Wayne State University, priority 2003, dated 2011).
“Also recorded” adds a separate entry of the source. Structures can show the parent of a compound that is named as a salt. Where two headings read alike, the source gives them in different places. Values belong to the compound of their own block, whether it stands above or below them.

Experiments:
NET [1] = test: Inhibition of [3H]nisoxetine binding to NET; parameters: species or system rat; settings: Table 3; selectivity ratio of IC50 values
Protocol: (§1) Biology. […] Briefly, rat striatum was the source for DAT, and cerebral cortex for SERT and NET. […] Test compounds were dissolved in dimethyl sulfoxide (DMSO) and diluted out in 10% (v/v) DMSO. […] At least five triplicate concentrations of each test compound were studied, spaced evenly around the IC50 value. For DAT uptake assays, uptake of 50 nM [^3H]DA into rat striatal synaptosomes was measured exactly as described by us previously. Briefly, rat striatal P2 membrane fractions were incubated with test compounds for 8 min followed by the additional presence of [^3H]DA for 4 min at 25?. […] Construction of inhibition curves and dissolvement of test compounds were as described above.

NET [2] = target: NET (Rattus norvegicus, UniProt Q9WTR4); test: Inhibition of [3H]nisoxetine binding to NET
Protocol: as §1

SERT [3] = target: T1, SERT (Rattus norvegicus, UniProt P31652); test: Inhibition of [3H]citalopram binding to SERT
T1 construct: rat striatum was the source for DAT, and cerebral cortex for SERT and NET; from tissue; host or cells: rat cerebral cortex
T1 sequence (P31652 whole entry): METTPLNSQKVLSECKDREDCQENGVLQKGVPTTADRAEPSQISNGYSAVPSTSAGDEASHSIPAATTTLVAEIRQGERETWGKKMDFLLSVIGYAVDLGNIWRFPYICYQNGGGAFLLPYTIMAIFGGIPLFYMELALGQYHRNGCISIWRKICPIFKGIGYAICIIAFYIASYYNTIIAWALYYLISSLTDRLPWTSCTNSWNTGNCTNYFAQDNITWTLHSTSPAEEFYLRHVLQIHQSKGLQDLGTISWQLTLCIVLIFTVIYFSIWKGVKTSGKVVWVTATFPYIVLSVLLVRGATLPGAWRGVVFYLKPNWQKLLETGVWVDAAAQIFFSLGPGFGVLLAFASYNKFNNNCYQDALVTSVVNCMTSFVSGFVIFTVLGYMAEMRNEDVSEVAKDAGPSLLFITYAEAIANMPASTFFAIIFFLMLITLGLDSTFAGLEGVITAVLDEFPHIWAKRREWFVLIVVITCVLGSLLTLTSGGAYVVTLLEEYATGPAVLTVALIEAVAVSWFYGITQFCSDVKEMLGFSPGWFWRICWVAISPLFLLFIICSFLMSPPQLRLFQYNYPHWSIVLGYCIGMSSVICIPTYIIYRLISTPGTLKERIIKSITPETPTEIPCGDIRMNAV
Protocol: as §1

DAT [4] = target: T2, DAT (Rattus norvegicus, UniProt P23977); test: Inhibition of [3H]WIN 35,428 binding to DAT
T2 construct: rat striatum was the source for DAT, and cerebral cortex for SERT and NET; from tissue; P2 synaptosomal fraction for uptake
T2 sequence (P23977 whole entry): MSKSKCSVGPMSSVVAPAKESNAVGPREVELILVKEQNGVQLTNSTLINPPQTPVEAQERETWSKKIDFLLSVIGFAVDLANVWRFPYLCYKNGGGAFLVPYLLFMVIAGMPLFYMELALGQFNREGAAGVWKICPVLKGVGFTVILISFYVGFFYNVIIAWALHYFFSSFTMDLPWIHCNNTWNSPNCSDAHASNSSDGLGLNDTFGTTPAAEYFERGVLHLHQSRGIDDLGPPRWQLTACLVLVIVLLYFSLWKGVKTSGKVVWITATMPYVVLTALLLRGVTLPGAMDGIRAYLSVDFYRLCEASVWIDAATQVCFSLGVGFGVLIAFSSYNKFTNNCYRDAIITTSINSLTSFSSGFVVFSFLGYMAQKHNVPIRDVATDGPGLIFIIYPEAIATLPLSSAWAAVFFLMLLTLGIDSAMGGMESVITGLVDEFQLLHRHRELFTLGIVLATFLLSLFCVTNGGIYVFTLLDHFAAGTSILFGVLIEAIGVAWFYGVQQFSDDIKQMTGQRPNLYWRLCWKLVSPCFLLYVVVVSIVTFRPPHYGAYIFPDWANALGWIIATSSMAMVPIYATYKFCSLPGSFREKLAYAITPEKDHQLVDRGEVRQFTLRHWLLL
Protocol: as §1

DAT [5] = target: T2, DAT; test: Inhibition of [3H]DA uptake by DAT into rat striatal synaptosomes; assay type: biochemical; settings: for [3H]DA uptake/DAT binding: Table 3, ratio of IC50 values; for IC50: Table 4, rat brain, read-out: DAT uptake, IC50 [3H]DA
Protocol: as §1

SERT [6] = target: T1, SERT; test: SERT uptake inhibition, [3H]5-HT; assay type: biochemical; settings: Table 4; for IC50: rat brain, read-out: SERT uptake, IC50 [3H]5-HT; for blockade of both SERT and NET (SNRI profile), in words: in vitro data
[7] = Table 2, average ± SEM, read-out: NET binding, IC50 [3H]nisoxetine
[8] = Table 2, average ± SEM, read-out: SERT binding, IC50 [3H]citalopram
[9] = Table 4, rat brain, read-out: DAT binding, IC50, [3H]Win 35,428

SMILES: COc1ccc(CN[C@@H]2C[C@@H](C(c3ccccc3)c3ccccc3)OC[C@@H]2O)cc1 (as salt: oxalate) [(−)-29g, (3R,4R,6S)-6-benzhydryl-4-(4-methoxy-benzylamino)-tetrahydro-pyran-3-ol]
- melting point: 234 to 235 °C

SMILES: Oc1ccc(CN[C@H]2CC[C@@H](C(c3ccccc3)c3ccccc3)OC2)cc1 (as salt: oxalate) [(−)-37a, cis-(3S,6S)-(6-benzhydryl-tetrahydropyran-3-yl)-(4-hydroxy-benzyl)-amine]
- melting point: 136 to 138 °C

SMILES: N[C@H]1CC[C@@H](C(c2ccccc2)c2ccccc2)OC1 (relative stereo) (as salt: HCl) [Compound 15, Cis-(6-benzhydryl-tetrahydropyran-3-yl)-amine]
- melting point: 260 to 261 °C

SMILES: Fc1ccc(CN[C@H]2CCO[C@@H](C(c3ccccc3)c3ccccc3)C2)cc1 (relative stereo) (as salt: oxalate) [Compound 7a, cis-(2-benzhydryl-tetrahydropyran 4-yl)-(4-fluorobenzyl)-amine]
- melting point: 177 to 181 °C

SMILES: Fc1ccc(CN[C@@H]2CCO[C@@H](C(c3ccccc3)c3ccccc3)C2)cc1 (relative stereo) (as salt: oxalate) [Compound 7b, trans-(2-benzhydryl-tetrahydropyran-4-yl)-(4-fluoro-benzyl)-amine]
- melting point: 185 to 187 °C

SMILES: N#Cc1ccc(CN[C@H]2CC[C@@H](C(c3ccccc3)c3ccccc3)OC2)cc1 (relative stereo) (as salt: oxalate) [Compound 16c, Cis-(6-benzhydryl-tetrahydropyran-3-yl)-(4-cyano-benzyl)-amine]
- melting point: 241 to 242 °C

SMILES: O=[N+]([O-])c1ccc(CN[C@H]2CC[C@@H](C(c3ccccc3)c3ccccc3)OC2)cc1 (relative stereo) (as salt: oxalate) [Compound 16d, Cis-(6-benzhydryl-tetrahydropyran-3-yl)-(4-nitro-benzyl)-amine]
- melting point: 236 to 238 °C

SMILES: COc1ccc(CN[C@H]2CC[C@@H](C(c3ccccc3)c3ccccc3)OC2)cc1 (relative stereo) (as salt: oxalate) [Compound 16e, Cis-(6-benzhydryl-tetrahydropyran-3-yl)-(4-methoxy-benzyl)-amine]
- melting point: 215 to 217 °C

SMILES: Fc1ccc(CN[C@H]2CCO[C@@H](C(c3ccccc3)c3ccccc3)C2)cc1 (relative stereo) [Compound 7a, cis-(2-benzhydryl-tetrahydropyran 4-yl)-(4-fluorobenzyl)-amine]
- NET binding/DAT binding (NET [1]): 3.9
- IC50 (NET [2]; Table 1, read-out: Inhibition of [3H]nisoxetine binding to NET, IC50): 5100 nM
- IC50 (NET [2]; [7]): 5100 nM
- IC50 (SERT [3]; Table 1, read-out: Inhibition of [3H]citalopram binding to SERT, IC50): 3310 nM
- IC50 (SERT [3]; [8]): 3310 nM
- SERT binding/DAT binding (SERT [3]; Table 3, selectivity ratio of IC50 values): 2.5
- activity at DAT, in words (DAT [4]): much weaker at DAT
- IC50 (DAT [4]; Table 1, rat striatum, read-out: Inhibition of [3H]Win 35,428 binding to DAT IC50): 1300 nM
- IC50 (DAT [4]; Table 2, average ± SEM of three to eight experiments, read-out: DAT binding, IC50, [3H]Win 35,428): 1300 nM

SMILES: N#Cc1ccc(CN[C@H]2CC[C@@H](C(c3ccccc3)c3ccccc3)OC2)cc1 (relative stereo) [Compound 16c, Cis-(6-benzhydryl-tetrahydropyran-3-yl)-(4-cyano-benzyl)-amine]
- IC50 (NET [2]; [7]): 1580 nM
- IC50 (SERT [3]; [8]): 863 ± 52 nM
- [3H]DA uptake/DAT binding (DAT [5]): 1.1

SMILES: Oc1ccc(CN[C@H]2CC[C@@H](C(c3ccccc3)c3ccccc3)OC2)cc1 (relative stereo) [Compound 16h, Cis-(6-benzhydryl-tetrahydropyran-3-yl)-(4-hydroxy-benzyl)-amine]
- potency at NET, in words (NET [2]): high potency for the NET
- IC50 (SERT [3]; [8]): 398 ± 22 nM
- IC50 (DAT [4]; read-out: IC50 at the DAT): 78.4 nM

SMILES: Nc1ccc(CN[C@H]2CC[C@@H](C(c3ccccc3)c3ccccc3)OC2)cc1 (relative stereo) [Compound 16o, Cis-(6-benzhydryl-tetrahydropyran-3-yl)-(4-amino-benzyl)-amine]
- potency at NET, in words (NET [2]): high potency at NET; also recorded: high potency for the NET
- [3H]DA uptake/DAT binding (DAT [5]): 1.02

SMILES: O[C@H]1C[C@H](C(c2ccccc2)c2ccccc2)OC[C@@H]1NCc1ccccc1 [(+)-29d, (2R,4S,5S)-2-benzhydryl-5-benzylamino-tetrahydro-pyran-4-ol]
- IC50 (DAT [5]): 341 ± 43 nM
- IC50 (DAT [4]; [9]): 596 ± 84 nM
- IC50 (SERT [6]): 6120 ± 730 nM

SMILES: Oc1ccc(CN[C@@H]2CC[C@H](C(c3ccccc3)c3ccccc3)OC2)cc1 [(+)-37a, cis-(3R,6R)-(6-benzhydryl-tetrahydropyran-3-yl)-(4-hydroxy-benzyl)-amine]
- IC50 (DAT [5]): 90.7 ± 4 nM
- IC50 (DAT [4]; [9]): 141 ± 2.2 nM
- IC50 (SERT [6]): 209 ± 25 nM

SMILES: COc1ccc(CN[C@@H]2CO[C@H](C(c3ccccc3)c3ccccc3)C[C@H]2O)cc1 [(−)-29a, (2S,4R,5R)-2-benzhydryl-5-(4-methoxy-benzylamino)-tetrahydropyran-4-ol]
- blockade of both SERT and NET (SNRI profile), in words (SERT [6]): potent blockers for both SERT and NET
- blockade of both SERT and NET (SNRI profile), in words (SERT [6]; listed as (−)29a): dual transport blockers

SMILES: O[C@@H]1C[C@@H](C(c2ccccc2)c2ccccc2)OC[C@H]1NCc1ccccc1 [(−)-29d, (2S,4R,5R)-2-benzhydryl-5-benzylamino-tetrahydro-pyran 4-ol]
- IC50 (DAT [5]): 600 ± 79 nM
- IC50 (SERT [6]): 862 ± 36 nM

SMILES: O[C@@H]1C[C@@H](C(c2ccccc2)c2ccccc2)OC[C@H]1NCc1ccc2[nH]ccc2c1 [(−)-32b, (2S,4R,5R)-2-benzhydryl-5-[(1H-indol-5-ylmethyl)-amino]-tetrahydropyran-4-ol]
- IC50 (DAT [5]): 162 ± 11 nM
- IC50 (DAT [4]; [9]): 705 ± 176 nM
- blockade of both SERT and NET (SNRI profile), in words (SERT [6]): potent blockers for both SERT and NET
- blockade of both SERT and NET (SNRI profile), in words (SERT [6]; listed as (−)32b): dual transport blockers

SMILES: Oc1ccc(CN[C@H]2CC[C@@H](C(c3ccccc3)c3ccccc3)OC2)cc1 [(−)-37a, cis-(3S,6S)-(6-benzhydryl-tetrahydropyran-3-yl)-(4-hydroxy-benzyl)-amine]
- IC50 (DAT [5]): 114 ± 8 nM
- IC50 (DAT [4]; [9]): 280 ± 8 nM
- IC50 (SERT [6]): 42 ± 3 nM
- blockade of both SERT and NET (SNRI profile), in words (SERT [6]): potent blockers for both SERT and NET
- blockade of both SERT and NET (SNRI profile), in words (SERT [6]; listed as (−)37a): dual transport blockers

SMILES: c1ccc(CN[C@H]2CC[C@@H](C(c3ccccc3)c3ccccc3)NC2)cc1 [Compound 1a, reference compound]
- IC50 (NET [2]; read-out: Inhibition of [3H]nisoxetine binding to NET, IC50): 612 ± 130 nM

Second part, the compound after the results:

- melting point: 177 to 179 °C
SMILES: c1ccc(C(c2ccccc2)C2CCC(NCc3c[nH]c4ccccc34)CO2)cc1 (stereo not drawn) (as salt: oxalate) [Compound 16f, Cis-(6-benzhydryl-tetrahydropyran-3-yl)-(3-indole-methyl)-amine]

- melting point: 215 to 216 °C
SMILES: c1ccc(C(c2ccccc2)C2CCC(NCc3cc4ccccc4[nH]3)CO2)cc1 (stereo not drawn) (as salt: oxalate) [Compound 16g, Cis-(6-benzhydryl-tetrahydropyran-3-yl)-(2-indole-methyl)-amine]

- melting point: 229 to 230 °C
SMILES: Fc1ccc(CN[C@H]2CC[C@@H](C(c3ccccc3)c3ccccc3)OC2)cc1 (relative stereo) (as salt: oxalate) [Compound 16b, Cis-(6-benzhydryl-tetrahydropyran-3-yl)-(4-fluoro-benzyl)-amine]

- melting point: 251 to 252 °C
SMILES: Clc1ccc(CN[C@H]2CC[C@@H](C(c3ccccc3)c3ccccc3)OC2)cc1Cl (relative stereo) (as salt: oxalate) [Compound 16i, Cis-(6-benzhydryl-tetrahydropyran-3-yl)-(3,4-dichloro-benzyl)-amine]

- melting point: 234 to 235 °C
SMILES: Fc1ccc(CN[C@H]2CC[C@@H](C(c3ccccc3)c3ccccc3)OC2)cc1F (relative stereo) (as salt: oxalate) [Compound 16j, Cis-(6-benzhydryl-tetrahydropyran-3-yl)-(3,4-difluoro-benzyl)-amine]

- melting point: 208 to 210 °C
SMILES: c1ccc(CN[C@H]2CC[C@@H](C(c3ccccc3)c3ccccc3)OC2)cc1 (relative stereo) (as salt: oxalate) [Compound 16k, Cis-(6-benzhydryl-tetrahydropyran-3-yl)-benzyl-amine]

- melting point: 250 to 252 °C
SMILES: Brc1ccc(CN[C@H]2CC[C@@H](C(c3ccccc3)c3ccccc3)OC2)cc1 (relative stereo) (as salt: oxalate) [Compound 16l, Cis-(6-benzhydryl-tetrahydropyran-3-yl)-(4-bromo-benzyl)-amine]

- melting point: 243 to 244 °C
SMILES: Ic1ccc(CN[C@H]2CC[C@@H](C(c3ccccc3)c3ccccc3)OC2)cc1 (relative stereo) (as salt: oxalate) [Compound 16m, Cis-(6-benzhydryl-tetrahydropyran-3-yl)-(4-iodo-benzyl)-amine]

- melting point: 240 to 242 °C
SMILES: Fc1ccc(CCN[C@H]2CC[C@@H](C(c3ccccc3)c3ccccc3)OC2)cc1 (relative stereo) (as salt: oxalate) [Compound 16p, Cis-(6-benzhydryl-tetrahydropyran-3-yl)-[2-(4-fluoro-phenyl)-ethyl]-amine]
